This is an account of results in paper PMC6934184, “Selective DNA-PKcs inhibition extends the therapeutic index of localized radiotherapy and chemotherapy” (The Journal of Clinical Investigation, 2019).

For this experiment, the target named is T1, ACVR2A (Homo sapiens, UniProt P27037).
T1 construct: purchased Thermo Fisher Scientific (Life Technologies) SelectScreen
Briefly: SelectScreen LanthaScreen. Particulars: read-out: % displacement. It counts as binding. The method, boiled down:
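NU5455 was profiled across the SelectScreen Broad panel of kinase activity and binding assays. Z'LYTE reactions such as CSF1R ran at apparent Km ATP, while the Adapta CAMK1 assay used ATP listed as 10. Values are given as percent.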

Each structure is given as a SMILES string.

T1 sequence (P27037 20-513): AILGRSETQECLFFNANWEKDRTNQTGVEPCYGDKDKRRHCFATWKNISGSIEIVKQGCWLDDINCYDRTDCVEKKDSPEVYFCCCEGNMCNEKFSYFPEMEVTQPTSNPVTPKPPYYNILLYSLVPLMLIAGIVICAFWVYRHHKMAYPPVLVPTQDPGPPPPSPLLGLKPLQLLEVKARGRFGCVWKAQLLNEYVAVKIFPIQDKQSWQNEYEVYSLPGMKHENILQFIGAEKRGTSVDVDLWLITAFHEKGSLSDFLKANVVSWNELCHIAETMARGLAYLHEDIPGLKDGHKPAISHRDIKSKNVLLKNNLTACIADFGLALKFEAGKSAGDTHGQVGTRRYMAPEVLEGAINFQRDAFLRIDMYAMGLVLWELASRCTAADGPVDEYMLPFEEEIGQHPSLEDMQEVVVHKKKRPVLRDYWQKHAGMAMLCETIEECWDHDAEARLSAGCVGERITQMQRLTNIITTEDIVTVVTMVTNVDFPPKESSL

Regarding `CN(C(=O)CN1CCOCC1)c1ccc2sc3c(-c4cccc5c(=O)cc(N6CC7CCC(C6)O7)oc45)cccc3c2c1` [NU5455], the inhibition at 1 µM came to 2.5%.
